Reference: ChEMBL document CHEMBL1201862, “PubChem BioAssay data set” (2004)
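Cultured in 96-well plates, cells were exposed to test compound for 48 hours across five concentrations. GI50 = concentration required for 50% inhibition of growth.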 Calls of active or inactive are those of the source. Rule as the data show it: active = GI50 up to about 1.1 µM and inactive = higher.

Legend:
Test in all cases: NCI-60 cell line screen, 48 h
[1] = system: A498
[2] = system: A549
[3] = system: ACHN
[4] = system: CAKI-1
[5] = system: CCRF-CEM
[6] = system: COLO 205
[7] = system: DLD-1
[8] = system: DMS-114
[9] = system: DMS-273
[10] = system: EKVX
[11] = system: HCC 2998
[12] = system: HCT-116
[13] = system: HCT-15
[14] = system: HL-60
[15] = system: HOP-18
[16] = system: HOP-62
[17] = system: HOP-92
[18] = system: HT-29
[19] = system: IGROV-1
[20] = system: K562
[21] = system: KM-20L2
[22] = system: KM12
[23] = system: LXFL 529
[24] = system: M14
[25] = system: M19-MEL
[26] = system: MOLT-4
[27] = system: Malme-3M
[28] = system: NCI-H226
[29] = system: NCI-H23
[30] = system: NCI-H460
[31] = system: NCI-H522
[32] = system: OVCAR-3
[33] = system: OVCAR-4
[34] = system: OVCAR-5
[35] = system: OVCAR-8
[36] = system: RPMI-8226
[37] = system: RXF 393
[38] = system: SF-268
[39] = system: SF-295
[40] = system: SF-539
[41] = system: SK-MEL-28
[42] = system: SK-MEL-2
[43] = system: SK-MEL-5
[44] = system: SK-OV-3
[45] = system: SN12C
[46] = system: SNB-19
[47] = system: SNB-75
[48] = system: SNB-78
[49] = system: SR
[50] = system: SW-620
[51] = system: TK-10
[52] = system: U-251
[53] = system: UACC-257
[54] = system: UACC-62
[55] = system: UO-31
[56] = system: XF498
[57] = system: LOX IMVI
[58] = system: MCF7
[59] = system: NCI/ADR-RES

CC(=O)C(/N=N\C1CCC(S(=O)(=O)NB2N=CS2)CC1)C(=O)Nc1ccccc1C (stereo not drawn)
GI50 [1]: 16.7 µM (inactive)
GI50 [2]: 13 µM (inactive)
GI50 [3]: 12.2 µM (inactive)
GI50 [4]: 23.1 µM (inactive)
GI50 [5]: 19 µM (inactive)
GI50 [6]: 20.9 µM (inactive)
GI50 [7]: 16.9 µM (inactive)
GI50 [8]: 11.9 µM (inactive)
GI50 [9]: 20.6 µM (inactive)
GI50 [10]: 19.3 µM (inactive)
GI50 [11]: 17.5 µM (inactive)
GI50 [12]: 13.5 µM (inactive)
GI50 [13]: 10.5 µM
GI50 [14]: > 100 µM (inactive)
GI50 [15]: 29.3 µM (inactive)
GI50 [16]: 20 µM (inactive)
GI50 [17]: 19.2 µM (inactive)
GI50 [18]: 16 µM (inactive)
GI50 [19]: 17.4 µM (inactive)
GI50 [20]: > 100 µM (inactive)
GI50 [21]: 15.9 µM (inactive)
GI50 [22]: 16 µM (inactive)
GI50 [23]: 14.2 µM (inactive)
GI50 [24]: 19.2 µM (inactive)
GI50 [25]: 17.6 µM (inactive)
GI50 [26]: 18.3 µM (inactive)
GI50 [27]: 16 µM (inactive)
GI50 [28]: 14.9 µM (inactive)
GI50 [29]: 13.6 µM (inactive)
GI50 [30]: 15.8 µM (inactive)
GI50 [31]: 15.3 µM (inactive)
GI50 [32]: 13.8 µM (inactive)
GI50 [33]: 12.8 µM (inactive)
GI50 [34]: 19.8 µM (inactive)
GI50 [35]: 10.5 µM (inactive)
GI50 [36]: 31.1 µM (inactive)
GI50 [37]: 21 µM (inactive)
GI50 [38]: 14.7 µM (inactive)
GI50 [39]: 17 µM (inactive)
GI50 [40]: 17.7 µM (inactive)
GI50 [41]: 15.4 µM (inactive)
GI50 [42]: 17.9 µM (inactive)
GI50 [43]: 12.6 µM (inactive)
GI50 [44]: 27 µM (inactive)
GI50 [45]: 17.4 µM (inactive)
GI50 [46]: 16.5 µM (inactive)
GI50 [47]: 17.5 µM (inactive)
GI50 [48]: 23.6 µM (inactive)
GI50 [49]: 43.7 µM (inactive)
GI50 [50]: 16.3 µM (inactive)
GI50 [51]: 25.6 µM (inactive)
GI50 [52]: 13.7 µM (inactive)
GI50 [53]: 17.9 µM (inactive)
GI50 [54]: 17.9 µM (inactive)
GI50 [55]: 18.8 µM (inactive)
GI50 [56]: 16.9 µM (inactive)

COc1cc[n+](C)cc1
GI50 [2]: > 100 µM (inactive)
GI50 [5]: > 100 µM (inactive)
GI50 [6]: > 100 µM (inactive)
GI50 [7]: > 100 µM (inactive)
GI50 [8]: > 100 µM (inactive)
GI50 [9]: > 100 µM (inactive)
GI50 [10]: > 100 µM (inactive)
GI50 [11]: > 100 µM (inactive)
GI50 [12]: > 100 µM (inactive)
GI50 [13]: > 100 µM
GI50 [14]: > 100 µM (inactive)
GI50 [15]: > 100 µM (inactive)
GI50 [16]: > 100 µM (inactive)
GI50 [17]: > 100 µM (inactive)
GI50 [18]: > 100 µM (inactive)
GI50 [19]: > 100 µM (inactive)
GI50 [20]: > 100 µM (inactive)
GI50 [21]: > 100 µM (inactive)
GI50 [22]: > 100 µM (inactive)
GI50 [57]: > 100 µM (inactive)
GI50 [25]: > 100 µM (inactive)
GI50 [58]: > 100 µM (inactive)
GI50 [26]: > 100 µM (inactive)
GI50 [27]: > 100 µM (inactive)
GI50 [28]: > 100 µM (inactive)
GI50 [29]: > 100 µM (inactive)
GI50 [30]: > 100 µM (inactive)
GI50 [31]: > 100 µM (inactive)
GI50 [59]: > 100 µM (inactive)
GI50 [32]: > 100 µM (inactive)
GI50 [33]: > 100 µM (inactive)
GI50 [34]: > 100 µM (inactive)
GI50 [35]: > 100 µM (inactive)
GI50 [36]: > 100 µM (inactive)
GI50 [37]: > 100 µM (inactive)
GI50 [38]: > 100 µM (inactive)
GI50 [39]: > 100 µM (inactive)
GI50 [40]: > 100 µM (inactive)
GI50 [41]: > 100 µM (inactive)
GI50 [42]: > 100 µM (inactive)
GI50 [43]: > 100 µM (inactive)
GI50 [44]: > 100 µM (inactive)
GI50 [45]: > 100 µM (inactive)
GI50 [46]: > 100 µM (inactive)
GI50 [47]: > 100 µM (inactive)
GI50 [48]: > 100 µM (inactive)
GI50 [50]: > 100 µM (inactive)
GI50 [52]: > 100 µM (inactive)
GI50 [53]: > 100 µM (inactive)
GI50 [54]: > 100 µM (inactive)
GI50 [55]: > 100 µM (inactive)
GI50 [56]: > 100 µM (inactive)
